Measurements reported in US20210300960A1, “SUGAR DERIVATIVE OR SALT THEREOF, AND ANTIBACTERIAL AGENT OR ANTIBACTERIAL ACTIVITY ENHANCER USING SAME” (NAGOYA INSTITUTE OF TECHNOLOGY, priority 2016, published 2021).
Where two headings read alike, the source gives them in different places.

Columns and labels:
[1] = test system: Escherichia coli; test: Antimicrobial activity enhancing action: MIC of novobiocin or erythromycin alone or in combined use with cyclodextrin derivative, Escherichia coli; type: cell-based
Experimental: The evaluation was performed by a procedure as follows. Specifically, before testing, each of the bacteria were incubated on a minimal salt medium combined with common bacteria-use dried broth or polypeptone and reached a logarithmic growth phase. […] Some of existing antimicrobial substances fail to exert their inherent antimicrobial activities, due to the bacterial membrane serving as a physical barrier. In these cases, the substances offer high minimum inhibitory concentrations (MICs) necessary for inhibiting the bacterial growth and are considered as having no antimicrobial (antibacterial) activity. In particular, this allows Gram-negative bacteria, which have not only a cytoplasmic membrane, but also a bacterial outer membrane, to have remarkable drug resistance. […] Next, the compound (cyclodextrin derivative) (a) represented by Chemical Formula (11) was evaluated for antimicrobial activity enhancing action through a test performed by a procedure similar to that in Example 3.

[2] = test system: Pseudomonas aeruginosa; test: Antimicrobial activity enhancing action: MIC of novobiocin or erythromycin alone or in combined use with cyclodextrin derivative, Pseudomonas aeruginosa; type: cell-based; conditions: cyclodextrin derivative 0 μg/mL (single use)
Experimental: The evaluation was performed by a procedure as follows. Specifically, before testing, each of the bacteria were incubated on a minimal salt medium combined with common bacteria-use dried broth or polypeptone and reached a logarithmic growth phase. […] The testing incubation was performed at an initial bacterial concentration of 1×10^4 cells per milliliter.
The test was performed using bacteria Escherichia coli and Pseudomonas aeruginosa.

Row | MIC ([1]; cyclodextrin derivative 0 μg/mL (single use), read-out: Minimum inhibitory concentration (MIC) of novobiocin) | Minimum inhibitory concentration (MIC) of novobiocin [2] | MIC ([2]; read-out: Minimum inhibitory concentration (MIC) of novobiocin) | MIC ([1]; read-out: Minimum inhibitory concentration (MIC) of erythromycin, cyclodextrin derivative 0 μg/mL (single use)) | Structure (SMILES)
1 | 128 µg/mL | 2048 µg/mL | 2050 µg/mL | – | CO[C@@H]1[C@@H](OC(N)=O)[C@@H](O)[C@H](Oc2ccc3c(O)c(NC(=O)c4ccc(O)c(CC=C(C)C)c4)c(=O)oc3c2C)OC1(C)C [novobiocin]
2 | – | – | – | 64 µg/mL | CC[C@H]1OC(=O)[C@H](C)[C@@H](O[C@H]2C[C@@](C)(OC)[C@@H](O)[C@H](C)O2)[C@H](C)[C@@H](O[C@@H]2O[C@H](C)C[C@H](N(C)C)[C@H]2O)[C@](C)(O)C[C@@H](C)C(=O)[C@H](C)[C@@H](O)[C@]1(C)O [erythromycin]
